{"source": "patent US20230365577A1", "about": "“Photodynamic Therapy and Diagnosis” (RMW CHO Group Limited, priority 2020, published 2023)", "key": {"[1]": {"tested_on": "HEK293", "experiment": "Phototoxicity, pan-cancer panel", "format": "cell-based", "conditions": "Homo sapiens, light or radiation study; HEK293, embryonic kidney", "experimental": "(§1) To test for phototoxicity, cells incubated with phyllochlorin analogues (0-10 μM in DMSO) had culture media replaced after 24 hours (as above) and were then exposed to a 652 nm laser (Invion) with laser density at 50 mW/cm^2 for 5 mins (total 15 J/cm^2). Following activation, cells were cultured for a further 24 hours. Media was then replaced with fresh media containing AlamarBlue, and % viable cells remaining assessed as above. Controls included cells treated with phyllochlorin analogues but not activated by laser light; cells without phyllochlorin analogue treatment but with laser light; and untreated controls. All measurements were made in quadruplicate.\n(§2) The activity of phyllochlorin analogues against multiple cancer cell types was assessed as above, using compounds 3 and 6 as examples."}, "[2]": {"tested_on": "A549", "experiment": "Phototoxicity, pan-cancer panel", "format": "cell-based", "conditions": "Homo sapiens, light or radiation study; A549, lung adenocarcinoma", "experimental": "as §1, §2"}, "[3]": {"tested_on": "B16F10", "experiment": "Phototoxicity, pan-cancer panel", "format": "cell-based", "conditions": "Mus musculus, B16-F10, light or radiation study; B16F10, melanoma", "experimental": "as §1, §2"}, "[4]": {"tested_on": "LP9", "experiment": "Phototoxicity, pan-cancer panel", "format": "cell-based", "conditions": "light or radiation study; LP9, immortalised mesothelial cells", "experimental": "as §1, §2"}, "[5]": {"tested_on": "HH", "experiment": "Phototoxicity, pan-cancer panel", "format": "cell-based", "conditions": "Homo sapiens, light or radiation study, T cell lymphoma", "experimental": "as §1, §2"}, "[6]": {"tested_on": "DLD-1", "experiment": "Phototoxicity, pan-cancer panel", "format": "cell-based", "conditions": "Homo sapiens, light or radiation study; DLD-1, colorectal adenocarcinoma", "experimental": "as §1, §2"}, "[7]": {"tested_on": "MDA-MB-468", "experiment": "Phototoxicity, pan-cancer panel", "format": "cell-based", "conditions": "Homo sapiens, light or radiation study; MDA-MB-468, breast adenocarcinoma (triple negative)", "experimental": "as §1, §2"}, "[8]": {"tested_on": "SKOV3 ovarian cancer cells", "experiment": "Inherent cytotoxicity (dark toxicity) in SKOV3 cells (AlamarBlue viability)", "format": "cell-based, Human", "conditions": "human, 24 h"}, "[9]": {"tested_on": "4T1 orthotopically implanted breast tumours", "experiment": "Photodynamic therapy of established breast tumours", "format": "in vivo, Balb/C wild type mice", "experimental": "Balb/C wild type mice with established 4T1 orthotopically implanted breast tumours were administered compound 6 by IT injection. At 24 hours post-injection (allowing compound 6 to clear from non-tumour tissues), mice were placed in clear perspex cages and illuminated (whole body) under red (660 nm) light for a period of 20 minutes. Light (660 nm) was delivered at an intensity of 100 mW/cm^2 for 20 mins continuously, to achieve a total light dose of 120 J/cm^2. […]"}, "[10]": {"experiment": "In vivo toxicity in wild type mice", "conditions": "intravenous or intraperitoneal injection, 0.5 to 5 mg/kg", "experimental": "The potential application of compound 6 as a representative phyllochlorin species was explored in vivo. Wild type mice (Balb/C and C57BL/6) received compound 6 by intravenous or intraperitoneal injection, with doses ranging from 0.5 to 5 mg/kg."}, "[11]": {"tested_on": "ID8 murine ovarian cancer cells", "experiment": "Tumour localisation and retention, model 2 (intraperitoneal ID8 metastatic disease)", "format": "in vivo, C57BL/6 wild type mice", "experimental": "Model 2 used C57BL/6 wild type mice implanted intraperitoneally with 1×10^6 ID8 murine ovarian cancer cells. Following a 4 week incubation (at which point metastatic peritoneal disease with macroscopically visible tumour deposits was established), mice received compound 6 by either oral gavage (ORAL: 2.5 mg/kg), intravenous injection (IV: 1.0 mg/kg), or intraperitoneal injection (IP: 1.0 mg/kg). Quantitative imaging was performed as above; however, due to the disseminated nature of ovarian cancer, imaging was performed at autopsy, using blue light (400 nm) illumination to visualise red fluorescence associated with compound 6 in tumour deposits."}, "[12]": {"tested_on": "HEK293", "experiment": "Cytotoxicity, pan-cancer panel", "format": "cell-based", "conditions": "HEK293, embryonic kidney", "experimental": "(§3) To test for inherent cytotoxicity (i.e. “dark toxicity”) of the phyllochlorin analogue the culture media was replaced after 24 hours with fresh media containing 10% (v/v) AlamarBlue Cell Viability Reagent (ThermoFisher) and cells incubated at 37° C. for 6 hours. Untreated cells were used as a control. Fluorescence (Ex 555 nm/Em 596 nm) was measured using a Cytation 3 Multimode Plate Reader (Biotek), and cytotoxicity assessed according to the % viable cells remaining. All measurements were made in quadruplicate.\nas §2"}, "[13]": {"tested_on": "A549", "experiment": "Cytotoxicity, pan-cancer panel", "format": "cell-based", "conditions": "A549, lung adenocarcinoma", "experimental": "as §3, §2"}, "[14]": {"tested_on": "B16F10", "experiment": "Cytotoxicity, pan-cancer panel", "format": "cell-based", "conditions": "B16F10, melanoma", "experimental": "as §3, §2"}, "[15]": {"tested_on": "LP9", "experiment": "Cytotoxicity, pan-cancer panel", "format": "cell-based", "conditions": "LP9, immortalised mesothelial cells", "experimental": "as §3, §2"}, "[16]": {"tested_on": "HH", "experiment": "Cytotoxicity, pan-cancer panel", "format": "cell-based", "conditions": "T cell lymphoma", "experimental": "as §3, §2"}, "[17]": {"tested_on": "DLD-1", "experiment": "Cytotoxicity, pan-cancer panel", "format": "cell-based", "conditions": "DLD-1, colorectal adenocarcinoma", "experimental": "as §3, §2"}, "[18]": {"tested_on": "MDA-MB-468", "experiment": "Cytotoxicity, pan-cancer panel", "format": "cell-based", "conditions": "MDA-MB-468, breast adenocarcinoma (triple negative)", "experimental": "as §3, §2"}}}
{"compound": "C=Cc1c(C)c2cc3nc(c(C)c4cc(C)c(cc5nc(cc1[nH]2)C(C)=C5CC)[nH]4)[C@@H](CCC(=O)N(C)CCCS[C@@H]1O[C@H](CO)[C@@H](O)[C@H](O)[C@H]1O)[C@@H]3C", "note": "[Compound 6, 3-((7S,8S)-18-ethyl-2,5,8,12,17-pentamethyl-13-vinyl-7H,8H-porphyrin-7-yl)-N-methyl-N-(3-(((2S,3R,4S,5S,6R)-3,4,5-trihydroxy-6-(hydroxymethyl)tetrahydro-2H-pyran-2-yl)thio)propyl)propanamide]", "values": [{"measurement": "IC90", "setting": "[1]", "result": 200, "unit": "nM"}, {"measurement": "IC90", "setting": "[2]", "result": 140, "unit": "nM"}, {"measurement": "IC90", "setting": "[3]", "result": 640, "unit": "nM"}, {"measurement": "IC90", "setting": "[4]", "result": 30, "unit": "nM"}, {"measurement": "IC90", "setting": "[5]", "result": 30, "unit": "nM"}, {"measurement": "IC90", "setting": "[6]", "result": 330, "unit": "nM"}, {"measurement": "IC90", "setting": "[7]", "result": 70, "unit": "nM"}, {"measurement": "Cellular Toxicity: Dark toxicity IC10", "setting": "[8]", "result": 9.49, "unit": "µM"}, {"measurement": "Cytotoxicity IC10", "setting": "[8]", "result": 9.49, "unit": "µM"}, {"measurement": "Tumour response", "setting": "[9]; IT injection plus 660 nm light 120 J/cm2 at 24 hours, after 14 days", "result": "regressed to an undetectable level"}, {"measurement": "Time to endpoint (tumour size ≥100 mm2)", "setting": "[9]; compound alone, no laser", "result": "≤ 13", "unit": "days"}, {"measurement": "Tumour regrowth", "setting": "[9]; compound plus laser, after 3 weeks", "result": "no evidence of regrowth"}, {"measurement": "Time to regression of established tumours to an undetectable level", "setting": "[9]; compound plus laser, n=2/group", "result": "≤ 14", "unit": "days"}, {"measurement": "Adverse toxic events", "setting": "[10]", "result": "no adverse toxic events observed at any dose"}, {"measurement": "Localisation into metastatic nodules", "setting": "[11]; IP 1.0 mg/kg", "result": "rapid and highly selective localisation"}, {"measurement": "Retention in tumour following injection", "setting": "[11]; IV 1.0 mg/kg", "result": "at least 24 hours"}, {"measurement": "Time of peak tumour distribution", "setting": "[11]; IV 1.0 mg/kg", "result": 4, "unit": "h"}, {"measurement": "Cytotoxicity IC10", "setting": "[12]", "result": 8.16, "unit": "µM"}, {"measurement": "Cytotoxicity IC10", "setting": "[13]", "result": 29.52, "unit": "µM"}, {"measurement": "Cytotoxicity IC10", "setting": "[14]", "result": 22.85, "unit": "µM"}, {"measurement": "Cytotoxicity IC10", "setting": "[15]", "result": 19.63, "unit": "µM"}, {"measurement": "Cytotoxicity IC10", "setting": "[16]", "result": 10.25, "unit": "µM"}, {"measurement": "Cytotoxicity IC10", "setting": "[17]", "result": 9.20, "unit": "µM"}, {"measurement": "Cytotoxicity IC10", "setting": "[18]", "result": 13.25, "unit": "µM"}]}
